Holding throughout (assay): NCI-60 cell line screen, 48 h
Test [1] has as its system RPMI-8226 leukemia.
Test [2] concerns HS 578T breast.
In test [3] the test system is CCRF-CEM leukemia.
Test [4] relates to K-562 leukemia.
Test [5] deals with LOX IMVI melanoma.
In test [6] the test system is SNB-75 CNS.
The subject of test [7] is OVCAR-3 ovarian.
Test [8] deals with ACHN renal.
Test [9] deals with HCC-2998 colon.
In test [10] the test system is SK-MEL-2 melanoma.

In PubChem BioAssay (NCI) one finds GI50 and TGI data, which are given here for 11 compounds.

Each structure is given as a SMILES string.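 Following 48 hours of exposure in 96-well plates, responses at five concentrations were used to interpolate endpoints linearly. Abbreviation: GI50, concentration required for 50% inhibition of growth. TGI: concentration producing complete growth inhibition.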 Bounds are passed on as bounds.

Consider `COc1ccc(Nn2c(SCC(=O)Nc3nc(-c4ccc(Cl)cc4)cs3)nc(C)c2C)cc1`, for which the GI50 was 5.8 µM in [1]; 11.8 µM in test [2]; 3.82 µM in test [3]; 1.58 µM in test [4]; 3.02 µM in test [5]; 4.8 µM in test [6]. The GI50 is 3.13 µM in [7], 2.27 µM in [8], 3.07 µM in [9] and 15.7 µM in [10]. Further, the TGI in [1] is above 100 µM; in [2] it was above 100 µM; in [3], above 100 µM; in test [4], above 100 µM; in test [5] it was 44.2 µM; in test [6], above 100 µM. Also, the TGI was determined as 24.2 µM in [7], 8.76 µM in test [8], 9.91 µM in test [9] and 66.8 µM in [10].
Turning to `COc1ccc(NC(=O)n2nc(N)c3ccccc32)cc1OC`, the GI50 in test [1] is 21.1 µM; in test [2], 43.3 µM; in [3], 36.7 µM; in [4], 41.2 µM; in [5], 49.3 µM; in test [6] it was 30.6 µM. The GI50 in [7] is 92 µM; in [8] it was 58.3 µM; in test [9] it was 61.1 µM; in test [10], 37.2 µM. Also, the TGI is 80.8 µM in [1]; above 100 µM in [2]; above 100 µM in [3]; above 100 µM in test [4]; above 100 µM in test [5]; above 100 µM in [6]. In addition, the TGI in [7], in test [8], in test [9] and in [10] was above 100 µM each time.
Consider `C=C(C)[C@@H]1CC[C@]2(C)[C@H](C(=O)C=C3[C@@H]4C[C@](C)(C(=O)N5CCN(C)CC5)CC[C@]4(C)CC[C@]32C)[C@@]1(C)CCC#N`, for which the GI50 in test [1] was 5.47 µM; in test [2], 7.99 µM; in [3] it was 6.62 µM; in test [4] it was 2.75 µM; in [5] it was 6.24 µM; in [6], 7.52 µM. Moreover, the GI50 in test [7] was 6.33 µM; in test [8], 7.02 µM; in test [9], 6.72 µM; in test [10] it was 7.57 µM. The TGI came out at 15.4 µM in test [1]; 20.9 µM in test [2]; 16.3 µM in [3]; 9.55 µM in [4]; 12.6 µM in test [5]; 15.8 µM in test [6]. The TGI in [7] is 13.2 µM; in [8] it was 13.5 µM; in test [9], 13.6 µM; in test [10], 14.8 µM.
As to `CCOc1ccc([C@@H]2[C@@H](Oc3ccccc3)C(=O)N2c2cc(OC)c(OC)c(OC)c2)cc1`, the GI50 in test [1] was 0.0486 µM; in test [2], 0.0583 µM; in test [3] it was 0.048 µM; in [4], 0.0367 µM; in test [5], 0.0642 µM; in test [6] it was 0.037 µM. In addition, the GI50 in test [7] was 0.0355 µM; in [8], 0.07 µM; in [9] it was 0.468 µM; in [10], 0.097 µM. Besides, the TGI in test [1], in test [2], in [3], in test [4], in [5] and in [6] was above 100 µM in each case. Moreover, the TGI in [7], in test [8], in test [9] and in [10] was above 100 µM throughout.
As to `Cc1nc2sccn2c(=O)c1CCN1CCC(=C(c2ccc(F)cc2)c2ccc(F)cc2)CC1`, the GI50 in [1] was 3.78 µM; in test [2], 16.3 µM; in test [3], 0.559 µM; in test [4], 5.18 µM; in test [5], 8.18 µM; in [6], 14.5 µM. Moreover, the GI50 is 12.8 µM in test [7], 13.4 µM in test [8], 12.3 µM in [9] and 16.8 µM in test [10]. Besides, the TGI in test [1] worked out at 25.2 µM; in test [2] it was 43.3 µM; in test [3], 26.3 µM; in [4], 26.2 µM; in test [5], 22.9 µM; in test [6], 28.7 µM. Moreover, the TGI was 27.2 µM in [7], 26.3 µM in test [8], 27.5 µM in test [9] and 32.2 µM in [10].
Regarding `O=[N+]([O-])c1ccc(-c2nc(-c3ccccc3)c(-c3ccccc3)n2-c2ccccc2)cc1`, the GI50 in [1] was 1.53 µM; in test [2], 2.74 µM; in test [3], 2.83 µM; in [4], 3.24 µM; in [5], 2.4 µM; in test [6] it was 2.64 µM. The GI50 is 2.43 µM in test [7], 2.62 µM in test [8], 2.07 µM in test [9] and 3.04 µM in test [10]. In addition, the TGI is 5.43 µM in [1]; 14.4 µM in test [2]; above 23.8 µM in test [3]; 95.9 µM in test [4]; 6.86 µM in [5]; 22 µM in test [6]. Also, the TGI in test [7] is 6.67 µM; in [8], 27.4 µM; in test [9], 4.1 µM; in test [10], 8.6 µM.
Consider `NC(CSC(c1ccccc1)(c1ccccc1)c1ccc(Cl)cc1)C(=O)O` (stereo not drawn), for which the GI50 is 0.143 µM in test [1]; 0.114 µM in [2]; 0.386 µM in test [3]; 0.209 µM in test [4]; 0.682 µM in test [5]; 0.255 µM in test [7]. In addition, the GI50 is 2.6 µM in test [8], 0.276 µM in test [9] and 0.239 µM in test [10]. In addition, the TGI is 21.5 µM in test [1]; 3.83 µM in test [2]; 40 µM in test [3]; above 57.6 µM in test [4]; 36.3 µM in test [5]; 1.85 µM in test [6]. Further, the TGI in test [7] was 3.37 µM; in test [8] it was above 78.4 µM; in [9] it was 2.77 µM; in test [10] it was 5.07 µM.
`ClC1=C(Cl)C(Cl)=C(Cl)C1=C/C=C/c1ccccc1`: the GI50 in [1] was below 0.0374 µM; in [2] it was 0.208 µM; in [3], 0.306 µM; in [4], 0.439 µM; in test [5], 0.184 µM; in test [6], 0.251 µM. In addition, the GI50 is 0.239 µM in test [7], 0.318 µM in [8], 0.229 µM in [9] and 0.256 µM in test [10]. The TGI is 0.275 µM in [1]; 0.685 µM in [2]; above 100 µM in test [4]; 0.407 µM in test [5]; 1.85 µM in [6]; 0.532 µM in test [7]. For the same compound, the TGI in test [8] is 0.855 µM; in [9] it was 0.464 µM; in [10], 0.678 µM.
As for `CCCCCCCCCCCCCCCCCC1=NCCN1CS(=O)(=O)O`, the GI50 in test [1] was 26.6 µM; in test [2], 11.6 µM; in test [3] it was 3.96 µM; in test [4], 3.93 µM; in test [5] it was 2.86 µM; in test [6], 17.2 µM. For the same compound, the GI50 in [7] is 15 µM; in [8] it was 13 µM; in test [9], 17 µM; in test [10], 27.7 µM. Moreover, the TGI in test [1] was 90.1 µM; in [2], 40 µM; in [3], above 100 µM; in test [4] it was above 100 µM; in test [5], 12.5 µM; in test [6], 44.9 µM. In addition, the TGI in test [7] was 33.7 µM; in test [8] it was 28.8 µM; in [9] it was 34.4 µM; in [10], 67.4 µM.
Consider `COc1ccccc1-n1c(-c2cc(O)ccc2C)cn2c3c(=O)[nH]c(=O)n(C)c3nc12`, for which the GI50 was above 100 µM in test [1]; 0.567 µM in test [2]; above 100 µM in test [3]; 0.31 µM in [4]; 2.28 µM in test [5]; 0.129 µM in test [6]. Moreover, the GI50 in [7] is 4.28 µM; in [8], 1.99 µM; in test [9], above 100 µM; in [10], above 100 µM. The TGI is above 100 µM in [1]; 5.75 µM in [2]; above 100 µM in test [3]; above 100 µM in [4]; 16 µM in test [5]; 1.12 µM in test [6]. Besides, the TGI in [7] is above 100 µM; in test [8], 63.5 µM; in [9], above 100 µM; in test [10] it was above 100 µM.
`O=C(O)C1C(C(=O)Nc2ccc3c(c2)Cc2ccccc2-3)C2(Cl)C(Cl)=C(Cl)C1(Cl)C2(Cl)Cl` (stereo not drawn): the TGI amounted to 32 µM in test [1]; 49.2 µM in test [2]; 38 µM in test [3]; 13.5 µM in [4]; 32.3 µM in [5]; 91.8 µM in [6]. Also, the TGI in test [7] is 35.9 µM; in test [8], above 100 µM; in [9], 34.8 µM; in test [10], 36.2 µM.
